Patent publication US20230265044A1, “SALT OF DEMETHYL TRAMADOL AND USE THEREOF” (priority 2020, published 2023)
≈ marks a conversion by molar mass, not a printed value.

Assays:
[1] = Determination on solubility in water (HPLC, stirred 24 hr); type: physicochemical; conditions: for solubility: in water, stirred for 24 hr; for approximate solubility: water needed to dissolve 1 g: per 1 g of sample, converted from solubility
Experimental: 1. chromatographic column: Agilent Pursuit C18, 3um, 4.6*150 mm
2. Mobile phase: 0.1% trifluoroacetic acid: acetonitrile=20: 80, flow rate: 1.0 mL/min, wavelength: 215 nm, column temperature: 35° C., injection volume: 10 μl;
3. Mobile phase preparation process:
1.0 mL of trifluoroacetic acid was added into 1000 mL of water, mixed well, and ultrasonicated;
4. Sample preparation process
About 10 mg of the sample to be tested was weighed and added into 1 mL of water, stirred for 24 hr, and centrifuged. The supernatant was taken as the sample for testing solubility. 10 mg of demethyl tramadol palmitate with the same structure as the sample to be tested was weighed and placed in a 100 mL measuring flask, 80% aqueous methanol solution was added to dissolve and dilute the demethyl tramadol palmitate to the scale, which was used as the corresponding reference solution.

[2] = Determination on hygroscopicity (80% RH, 24 h); type: physicochemical
Experimental: Test process: a weighing bottle was taken, put into a dryer with 80% RH saturated solution, balanced for 24 h, taken out, and weighed as m1; a sample was taken, spread into the weighing bottle with a thickness about 1 mm, and weighed as m2; and then the weighing bottle was put into the dryer with 80% RH saturated solution, balanced for 24 h, and weighed as m3.
Calculation formula: hygroscopicity=(m3−m2)/(m2−m1)*100%

Row | Molecule | solubility [1] | approximate solubility: water needed to dissolve 1 g [1] | hygroscopicity [2]
1 | CN(C)CC1CCCCC1(O)c1cccc(O)c1 (racemic) [Example 2, Demethyl Tramadol Palmitate Monosalt] | 700 µg/mL | 1428.6 mL | 6.3%
2 | CN(C)C[C@H]1CCCC[C@]1(O)c1cccc(O)c1 (racemic) [racemic demethyl tramadol free base, (±)-(1RS, 2RS)-2-[(N,N dimethylamino)methylene]-1-hydroxy-cyclohexyl phenol] | 1400 µg/mL (≈ 5.61 mM) | 714.3 mL | 
3 | CN(C)C[C@H]1CCCC[C@]1(O)c1cccc(O)c1.Cl (racemic) [racemic demethyl tramadol hydrochloride] | higher than 200 mg/mL | ≤ 5 mL | 
4 | racemic demethyl tramadol acetate | higher than 50 mg/mL | ≤ 20 mL | 
